Measured values published in patent US20230117034A1, “PYRAZOLOTRIAZINES” (Bayer Aktiengesellschaft, priority 2019, published 2023).

Assays:
[1] = target: T1, CDK2/CycE (Homo sapiens, UniProt P24941); assay: CDK2/CycE kinase assay (TR-FRET, 2 mM ATP); assay type: biochemical; conditions: 2 mM ATP (high ATP); median; read-out: CDK2/CyclinE, 2 mM ATP (high ATP), IC50 (median)
T1 construct: purchased ProQinase GmbH (Freiburg, Germany); host or cells: insect cells (Sf9)
In short: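 GST-tagged human CDK2 and CycE from Sf9 cells, about 10 ng/ml, pre-incubated 15 min at 22 °C with compound in Tris/HCl pH 8.0 buffer. Reaction with 2 mM ATP and 0.75 µM biotinylated peptide for 25 min at 22 °C. Phospho-RB antibody TR-FRET (665/620 nm ratio) read after 1 h; data normalised to no-inhibitor and no-enzyme controls.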

[2] = test system: BRCA1 mRNA expression in MDA-MB-231 cells; assay: qRT-PCR assay: BRCA1 mRNA expression in MDA-MB-231; assay type: cell-based, human; conditions: Homo sapiens, MDA-MB-231, Inhibition of BRCA1 mRNA expression in MDA-MB-231 cells; median; read-out: RTqPCR-MDA-MB-231, IC50, BRCA1 (median)
In short: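 Cells were seeded at 200,000 cells/well, left 24 h, then exposed continuously to test substances for 24 h. Total RNA (600 ng) was reverse-transcribed to cDNA and amplified by qPCR, and transcript levels were normalised to GAPDH housekeeping expression.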

[3] = test system: CAL-120, human breast adenocarcinoma cells; assay: Proliferation assay CAL-120 (crystal violet, 4 days); assay type: cell-based; conditions: Homo sapiens, CAL-120, 96 h, CAL-120 cells, median, read-out: Prolif-CAL-120, IC50-[mol/l] (median)
In short: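 Cells seeded at 4,000/well in medium with 10% FCS; after 24 h, compounds added at 0.01-10 µmol/L (0.1% DMSO) for 4 days. Glutaraldehyde-fixed, crystal violet-stained, absorbance at 595 nm normalized to zero-point plate (0%) and untreated cells (100%); IC50 by 4-parameter fit.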

Structure (SMILES): COc1ccccc1-c1nnc(CNc2nc(N3CCN(C)CC3)nc3c(C4CC4(F)F)cnn23)[nH]1 (stereo not drawn) [Example 430, 8-(2,2-difluorocyclopropyl)-N-{[5-(2-methoxyphenyl)-4H-1,2,4-triazol-3-yl]methyl}-2-(4-methylpiperazin-1-yl)pyrazolo[1,5-a][1,3,5]triazin-4-amine]
- IC50 [1]: > 20000 nM
- IC50 [2]: 10 nM
- IC50 [3]: 38.6 nM

Structure (SMILES): Fc1ccc2[nH]c(CNc3nc(N4CCOCC4)nc4c(-c5ccnnc5)cnn34)nc2c1F [Example 417, N-[(4,5-difluoro-1H-benzimidazol-2-yl)methyl]-2-(morpholin-4-yl)-8-(pyridazin-4-yl)pyrazolo[1,5-a][1,3,5]triazin-4-amine]
- IC50 [1]: > 20000 nM
- IC50 [2]: 14.6 nM
- IC50 [3]: 9.17 nM
